# In patent US5190873A, “Hybrid tryptophan aporepressor containing ligand binding sites” (California Institute of Biological Research, priority 1991, dated 1993):
# Where no end group is shown, it is not given here.
# System: U251MG human glioma cell attachment to TrpR-TN5 (E. coli Trp aporepressor hybrid with SRRGDMS at D/E transition)
# Experiment: Cell attachment assay on TrpR-TN5-coated wells, peptide competition
# Format: cell-based
# Conditions: peptide at 1 mg/ml; U251 cells
# Experimental: Recombinant proteins were assessed for cell binding activity in a microtiter plate cell attachment assay. The assay is a simple and rapid means of assessing cell binding to the recombinant protein. In addition the specificity of the interaction is explored with specific inhibitor peptides, recombinant proteins and matrix proteins. Finally, the assay is used to screen a variety of cell lines to determine the range of cell types capable of interacting with the recombinant protein.
# The assay used was a modification of one widely used in the field. See Bourdon et al., J. Cell Biol., 108:1149-1155 (1989). […] Nonspecific sites on the well were blocked with BSA. Human tumor cells, U251MG-human glioma or MG63-human sarcoma having the receptor which binds the SRRGDMS receptor binding site with or without inhibitor were added and allowed to adhere for 30 to 90 minutes at 37° C. Following the maintenance period, non-adherent cells were washed out and relative numbers of adherent cells were determined. The assay can detect binding interactions in the absence of extensive cell spreading.
# In the cell attachment assay, the attached cells stained with Di-I a vital fluorescent dye which intercalates in cell membranes. The advantages of this form of cell tagging are that cells can be rapidly labeled, the label remains cell bound, it is not radioactive, and it is easily detected in a fluorescence plate reader.
# Specificity of cell attachment was then determined in competition assays of cell attachment using SRRGDMS or GRGDSP peptides as competitive inhibitors of recombinant protein cell attachment. In the presence of 1 mg/ml SRRGDMS peptide, the specific attachment of U251MG cells to either fusion protein was inhibited as shown in FIG. 3.
row,Substance,inhibition of cell attachment to TrpR-TN5
1,GRGDSP (GRGDSP-NH2),inhibited
2,MGSRSRD,did not inhibit
3,SRRGDMS (SRRGDMS-NH2),inhibited
